ChEMBL document CHEMBL1157539, “Thousands of chemical starting points for antimalarial lead identification” (Nature, 2010)

System: Plasmodium falciparum
Experiment: GSK_TCMDC: Inhibition of Plasmodium falciparum 3D7 in whole erythrocytes, using parasite LDH activity as an index of growth.
Format: functional, organism-based
Details: Plasmodium falciparum, 3D7

Row | SMILES | XC50 [nM]
1 | N=C(N)Nc1nc(-c2cccc(NC(=O)NCc3ccc(OC(F)(F)F)cc3)c2)cs1 | 703
2 | c1ccc2c(CNc3ccnc(NCc4cccc5ccccc45)n3)cccc2c1 | 559
3 | COc1ccc2ncc(F)c(CCN3CCC4(CC3)COC(c3cc5c(cn3)OCCO5)=N4)c2n1 | 216
4 | NC(=O)c1ccc(C(=O)Nc2cccc(-c3cccc(-c4nc5cc(C(F)(F)F)ccc5[nH]4)c3)c2)cc1 | 229
5 | CCc1cc2c(cc1CC)CC(NC[C@@H](O)c1ccc(O)c3[nH]c(=O)ccc13)C2 | 1120
6 | COc1ccc(CN(C2CC2)C(C)C(=O)c2[nH]c(C)c(C(C)=O)c2C)cc1 (stereo not given) | 1590
7 | Fc1ccccc1COc1ccc(Nc2ncnc3ccc(I)cc23)cc1Cl | 930
8 | O=C(Nc1ccc2c(c1)CCN(C1CCC1)CC2)c1ccc(-c2cn3ccccc3n2)cc1 | 879
9 | CNc1ccc(CNCc2cccc(-c3ccc(-c4nc5cccc(C)c5[nH]4)s3)c2)cc1 | 987
10 | COc1ccc2ccccc2c1CNCC1CCN(CC2CCCCC2)CC1 | 761
11 | CCOC(C(=O)OCC1CCCN(C)C1)(c1ccccc1)c1ccccc1 (stereo not given) | 868
12 | CCCOc1cc(NC(=O)Nc2ccnc3ccccc23)cc(OCCC)c1 | 732
13 | Cc1cc(NCCCN2CCCC2=O)n2c(nc3ccccc32)c1C#N | 858
14 | Cc1nn(-c2ccccc2)c2c1C(c1ccc(C(C)C)cc1)N1C(=N2)N(Cc2ccccc2)c2ccccc21 (stereo not given) | 776
15 | COc1ccc(CNc2nc(Nc3cccc(C#N)c3)nc(Nc3cccc(C#N)c3)n2)cc1Cl | 179
16 | c1ccc(-c2cccnn2)cc1 | 910
17 | CC(C)C1=NC(=O)c2cc([N+](=O)[O-])ccc2CN1 | 149
18 | CCOc1ccc(-c2nonc2NC(=O)c2ccco2)cc1OCC | 750
19 | CCN(CC)CCCN(Cc1ccc(-c2ccc(C(F)(F)F)cc2)cc1)C(=O)Cn1c(SCc2cccc(F)c2F)cc(=O)c2ccccc21 | 1320
20 | N[C@@H](CCNC1CCN(c2cccc(C(F)(F)F)c2)CC1)Cc1ccc(F)c(F)c1 | 1290
21 | CCOC(=O)c1ccc(NC(=O)N[C@@H](Cc2ccc(O)cc2)C(=O)NC2CCN(Cc3ccc4c(c3)OCO4)CC2)cc1 | 1060
22 | COc1ccc2nccc(N3CCC(O)(CCNCc4ccc5c(n4)NC(=O)CO5)CC3)c2n1 | 819
23 | N#Cc1cccc(NC(=O)Nc2ccc3c(c2)CN(Cc2c[nH]c4ncccc24)C3)c1 | 800
24 | O=C(Nc1ccc(-c2nc3ccccc3[nH]2)cc1)C1CCN(Cc2cccc(F)c2F)CC1 | 1100

Row | SMILES | XC50 [nM]
25 | CCc1nc2nc(C)cc(Nc3cc(C)cc(C)c3)n2n1 | 294
26 | Cc1cc(O)nc(NC(=N)NOCCCc2ccccc2)n1 | 760
27 | Cc1ccccc1Nc1cc(Nc2ccccc2C)c2ccccc2n1 | 782
28 | Oc1ccccc1CCNCC1CCc2ccccc2C1 (stereo not given) | 689
29 | N#Cc1ccc(C=CC(=O)NC2CCC(CCN3CCc4ccc(-c5cnccn5)cc4CC3)CC2)cc1 (stereo not given) | 613
30 | Cc1cc(OCCCN2CCC(NS(=O)(=O)c3cccc(Br)c3)CC2)c2ccccc2n1 | 1110
31 | COc1ccc(C(=O)CCC(=O)N(Cc2ccc(-c3ccc(CNCCc4ccccc4)cn3)cc2)C(C)CN(C)C)cc1F (stereo not given) | 747
32 | CS(=O)(=O)c1ccc(CCNCc2ccc(-c3ccc(CNC4Cc5ccccc5C4)cc3)nc2)cc1 | 757
33 | Cc1cccc2c(C3CCN(CC4CCC(NC(=O)/C=C/c5ccc(Cl)c(Cl)c5)CC4)CC3)c[nH]c12 (stereo not given) | 1030
34 | CN(C)c1nc(NCc2ccccc2)nc(N/N=C/c2cc([N+](=O)[O-])ccc2O)n1 | 685
35 | COc1ccc(CN2CCC(NCc3cccc([N+](=O)[O-])c3)CC2)cc1 | 910
36 | CCN(CC)CCN(Cc1ccc(-c2ccc(C(F)(F)F)cc2)cc1)C(=O)Cn1c(CCc2ccccc2F)nc(=O)c2ccccc21 | 934
37 | O=c1c2c([nH]c3cc(Cl)ccc13)CCCC2 | 810
38 | COC(=O)Nc1ccc(-c2ccc(C(=O)NC3CCN(C[C@H](O)c4ccnc5ccc(OC)cc45)CC3)cc2)c(C)c1 | 685
39 | COc1ccc(F)cc1-c1ccccc1CNC(=O)c1cnn(-c2ccc([N+](=O)[O-])cc2)c1C(F)(F)F | 596
40 | CSCCCN1CCC(O)(c2ccc3oc(C(=O)Nc4ccc5sc(C)nc5c4)cc3c2)CC1 | 1070
41 | CCCCCC(C)C(C)c1cc(O)c2c(c1)OC(C)(C)c1cnccc1-2 (stereo not given) | 770
42 | CC(Cc1ccc(Sc2ccccc2)cc1)NCC(O)c1cccc(C(F)(F)F)c1 (stereo not given) | 589
43 | O=C(Cn1c(SCc2cccc(F)c2F)cc(=O)c2ccccc21)N(CCc1c[nH]cn1)Cc1ccc(-c2ccc(C(F)(F)F)cc2)cc1 | 801
44 | C=CCc1cc(Cc2cnc(N)nc2N)cc(CCC)c1O | 986
45 | Cn1nccc1C(=O)NCCNCc1cccc(-c2cccc(-c3nc4cc(F)ccc4[nH]3)c2)c1 | 261
46 | O=C(Nc1ccc(I)cc1)Nc1ccc(Cn2ncc(N3CCCNCC3)c(Cl)c2=O)cc1 | 1120
47 | COc1ccc(-c2nc(NC(=O)Cc3coc4cc(OC)ccc34)sc2C)cc1 | 609
48 | NC(=O)c1ccsc1NC(=O)CNC(c1ccccc1)c1ccccc1 | 938

Row | SMILES | XC50 [nM]
49 | Cc1ccccc1C1CCN(C2CCC(NC(=O)C3=Cc4cc(Cl)ccc4OC3)CC2)CC1 (stereo not given) | 889
50 | Cc1cc(NCCC(=O)Nc2ccccc2)nc(NCCc2cccnc2)n1 | 1240
51 | COc1ccc(CNC2CCN(C)CC2)cc1-c1ccc(S(=O)(=O)NCc2ccccc2)cc1 | 604
52 | Oc1ccc(CCCNc2nc(NCc3ccccc3-c3ccccc3)nc(N3CCNCC3)n2)cc1 | 713
53 | Cc1nnsc1C(=O)Nc1cccc(-c2ccc(-c3nc4ccccc4[nH]3)cc2)c1 | 870
54 | COc1ccc(NC(=O)c2ccc(C=Cc3ccc(C(F)(F)F)cc3)cc2)cc1N1CCN(C)CC1 | 421
55 | Cc1cccc2nc(-c3cccc(-c4ccc(NC(=O)c5cnn6cccnc56)cc4)c3)[nH]c12 | 212
56 | CCOC(=O)NCC(=O)Nc1cccc(-c2cccc(-c3nc4cc(C(F)(F)F)ccc4[nH]3)c2)c1 | 626
57 | COc1cccc(C(=O)C2CC2CN2CC=C(c3c[nH]c4cccc(Br)c34)CC2)c1 (stereo not given) | 752
58 | COc1ccc(OCCCN2CCN(CC(c3ccc(F)cc3)N3CCN(C(C)C)CC3)CC2)c2ccccc12 (stereo not given) | 650
59 | N#Cc1cccc(NC(=O)c2cccc(S(=O)(=O)NC3CCN(CC4CCCCC4)C3)c2)c1 (stereo not given) | 578
60 | CC(C)NCc1cccc(-c2ccc(NC(=O)c3cccc(C#N)c3)cc2)c1 | 324
61 | O=C(CCc1c[nH]cn1)Nc1cccc(-c2cccc(-c3nc4cc(C(F)(F)F)ccc4[nH]3)c2)c1 | 132
62 | CC(C)(C)c1ccc(NC(=O)c2cccc(CN3CCCN(Cc4cccc(Cl)c4)CC3)c2)cc1 | 997
63 | COc1cc(Cc2cnc(N)nc2N)cc(OCCCCc2nnn[nH]2)c1OC | 286
64 | COc1ccc(OC)c2c1CCN(C)C2Cc1cccc2ccccc12 (stereo not given) | 1050
65 | CC(C)/C(=C(/F)CN1C(=O)C(NC(=O)c2cc3ccccc3[nH]2)C(=O)N(c2ccccc2)c2ccccc21)c1ccccc1 (stereo not given) | 697
66 | COc1ccc(Cl)cc1N1CCN(CCCNC(=O)c2ccc(-c3nc4cc(Cl)c(F)cc4[nH]3)s2)CC1 | 314
67 | O=C(Cc1c[nH]cn1)Nc1cccc(-c2ccc(-c3nc4cc(C(F)(F)F)ccc4[nH]3)cc2)c1 | 700
68 | C=CCN(C(=O)c1ccc(Cl)c([N+](=O)[O-])c1)c1nc(-c2ccccc2)cs1 | 398
69 | CCCCOc1ccc(N2C(N)=NC(N)=NC2(C)C)cc1 | 215
70 | CCCCCCN1CCCN(Cc2ccc(C(=O)Nc3ccc(CC)cc3)cc2)CC1 | 756
